Source: ChEMBL document CHEMBL1201862, “PubChem BioAssay data set” (2004)
Calls of active or inactive are those of the source.

Key:
[1] = Counterscreen for AddAB inhibitors: absorbance-based bacterial cell-based high throughput dose response assay for inhibitors of bacterial viability. [Related pubchem assays (depositor defined):AID435030, AID449728, AID449731, AID488942, AID488955, AID488956]; format: functional
Exodeoxyribonuclease V = Exodeoxyribonuclease V (Escherichia coli (strain K12), UniProt P04993+P07648+P08394); experiment: RecBCD inhibition via phage-restricted bacterial growth – absorbance, V66 E. coli, mutant T4 phage, counter-screen for AddAB inhibitor project, dose response (AID 492957); format: functional, cell-based, Escherichia coli str. K-12 substr. MG1655
[2] = molecular target: T1, Tyrosine-protein phosphatase non-receptor type 7 (Homo sapiens, UniProt P35236); experiment: redox-active compounds inhibiting HePTP phosphatase – biochemical, fluorescence, mechanism study (AID 2068); format: functional
T1 sequence (P35236 whole entry): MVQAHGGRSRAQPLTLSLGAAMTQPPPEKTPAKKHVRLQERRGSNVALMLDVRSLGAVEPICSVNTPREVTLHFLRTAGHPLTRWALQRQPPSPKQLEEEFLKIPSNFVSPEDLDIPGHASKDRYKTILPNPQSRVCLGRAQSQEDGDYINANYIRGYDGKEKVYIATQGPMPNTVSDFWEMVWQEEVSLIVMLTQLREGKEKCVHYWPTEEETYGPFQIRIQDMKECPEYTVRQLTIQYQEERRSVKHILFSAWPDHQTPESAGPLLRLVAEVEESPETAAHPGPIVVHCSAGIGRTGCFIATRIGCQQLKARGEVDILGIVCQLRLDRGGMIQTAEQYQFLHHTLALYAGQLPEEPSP

[3] = molecular target: T2, Dual specificity protein phosphatase 6 (Rattus norvegicus, UniProt Q64346); format: functional;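 also: confirmatory in vitro dose-response testing of MKP-3 inhibition; recombinant His-tagged MKP-3 made in E. coli BL21 with OMFP substrate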
T2 sequence (Q64346 whole entry): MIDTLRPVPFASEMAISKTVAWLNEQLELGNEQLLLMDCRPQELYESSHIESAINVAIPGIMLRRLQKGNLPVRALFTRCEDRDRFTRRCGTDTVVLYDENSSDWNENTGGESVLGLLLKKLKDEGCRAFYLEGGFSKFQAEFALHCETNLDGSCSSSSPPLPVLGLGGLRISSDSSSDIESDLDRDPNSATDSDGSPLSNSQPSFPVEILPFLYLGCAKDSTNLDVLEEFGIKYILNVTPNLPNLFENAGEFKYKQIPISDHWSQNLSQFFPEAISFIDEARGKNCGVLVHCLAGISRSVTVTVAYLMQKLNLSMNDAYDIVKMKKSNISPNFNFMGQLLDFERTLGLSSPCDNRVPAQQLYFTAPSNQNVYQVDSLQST

[4] = molecular target: T3, High affinity choline transporter 1 (Homo sapiens, UniProt Q9GZV3); experiment: human choline transporter blockers, potency – cell-based, 5-point CRC, membrane potential dye, dose response (AID 504840); format: functional
T3 sequence (Q9GZV3 whole entry): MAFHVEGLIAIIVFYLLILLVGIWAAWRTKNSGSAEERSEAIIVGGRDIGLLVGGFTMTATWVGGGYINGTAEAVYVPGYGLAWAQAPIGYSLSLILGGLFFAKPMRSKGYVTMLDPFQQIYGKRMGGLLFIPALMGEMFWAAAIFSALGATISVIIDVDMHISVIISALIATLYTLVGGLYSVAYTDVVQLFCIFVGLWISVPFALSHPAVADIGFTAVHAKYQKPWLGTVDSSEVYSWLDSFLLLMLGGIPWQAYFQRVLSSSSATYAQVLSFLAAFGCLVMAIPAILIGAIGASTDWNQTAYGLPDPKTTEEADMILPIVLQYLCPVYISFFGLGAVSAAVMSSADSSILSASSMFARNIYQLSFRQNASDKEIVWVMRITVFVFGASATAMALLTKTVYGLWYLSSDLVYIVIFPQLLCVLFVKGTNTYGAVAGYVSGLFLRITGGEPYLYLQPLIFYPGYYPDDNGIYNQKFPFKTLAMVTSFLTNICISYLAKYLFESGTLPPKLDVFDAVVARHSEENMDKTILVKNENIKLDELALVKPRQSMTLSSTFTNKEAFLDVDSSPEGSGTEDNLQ

Vero = experiment: cells; format: functional, cell-based; settings: Chlorocebus sabaeus
HEK293 = experiment: cells; settings: Homo sapiens;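 also: cells exposed to compound for 14 hours overnight before viability readout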
[5] = molecular target: T4, Nucleotide-binding oligomerization domain-containing protein 1 (Homo sapiens, UniProt Q9Y239); experiment: blockers of NOD1 pathway activity – revised, SAR follow-up (AID 2333); format: functional
T4 sequence (Q9Y239 whole entry): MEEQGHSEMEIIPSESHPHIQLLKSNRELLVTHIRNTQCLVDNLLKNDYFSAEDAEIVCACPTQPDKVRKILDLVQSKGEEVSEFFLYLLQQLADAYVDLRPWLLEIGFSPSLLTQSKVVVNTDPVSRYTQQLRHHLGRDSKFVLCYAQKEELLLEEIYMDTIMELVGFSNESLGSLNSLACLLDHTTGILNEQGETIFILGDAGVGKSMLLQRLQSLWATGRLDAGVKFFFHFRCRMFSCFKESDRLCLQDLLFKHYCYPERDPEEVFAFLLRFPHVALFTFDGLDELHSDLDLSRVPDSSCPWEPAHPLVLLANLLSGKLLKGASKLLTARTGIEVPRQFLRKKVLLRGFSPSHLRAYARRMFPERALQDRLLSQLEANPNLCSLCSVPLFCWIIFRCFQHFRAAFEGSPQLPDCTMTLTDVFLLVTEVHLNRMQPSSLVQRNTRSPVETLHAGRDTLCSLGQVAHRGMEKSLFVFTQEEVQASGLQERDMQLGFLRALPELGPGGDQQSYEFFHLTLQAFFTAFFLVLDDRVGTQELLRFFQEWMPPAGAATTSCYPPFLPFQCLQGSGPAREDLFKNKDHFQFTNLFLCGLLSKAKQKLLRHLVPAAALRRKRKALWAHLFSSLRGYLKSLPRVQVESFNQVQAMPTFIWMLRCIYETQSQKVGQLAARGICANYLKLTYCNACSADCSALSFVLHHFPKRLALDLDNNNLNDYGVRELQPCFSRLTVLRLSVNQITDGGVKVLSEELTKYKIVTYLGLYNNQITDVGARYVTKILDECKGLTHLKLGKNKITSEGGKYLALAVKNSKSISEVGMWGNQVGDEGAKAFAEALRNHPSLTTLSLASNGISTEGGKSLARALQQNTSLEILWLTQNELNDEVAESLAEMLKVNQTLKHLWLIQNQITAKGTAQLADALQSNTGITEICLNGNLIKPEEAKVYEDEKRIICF

Tumor necrosis factor = Tumor necrosis factor (Homo sapiens, UniProt P01375); experiment: analog potency on TNFa NF-kB signaling – cell-based, revised, SAR follow-up (AID 2337); format: functional
[6] = molecular target: Intestinal-type alkaline phosphatase (Mus musculus, UniProt P24822); experiment: PubChem AID 488785; format: functional
[7] = molecular target: T5, Alkaline phosphatase, tissue-nonspecific isozyme (Homo sapiens, UniProt P05186); experiment: TNAP enzyme inhibition by screening hits, dose response, selectivity assay for mouse IAP inhibitor project, biochemical, human TNAP, uHTS hits (AID 488906); format: functional
T5 sequence (P05186 whole entry): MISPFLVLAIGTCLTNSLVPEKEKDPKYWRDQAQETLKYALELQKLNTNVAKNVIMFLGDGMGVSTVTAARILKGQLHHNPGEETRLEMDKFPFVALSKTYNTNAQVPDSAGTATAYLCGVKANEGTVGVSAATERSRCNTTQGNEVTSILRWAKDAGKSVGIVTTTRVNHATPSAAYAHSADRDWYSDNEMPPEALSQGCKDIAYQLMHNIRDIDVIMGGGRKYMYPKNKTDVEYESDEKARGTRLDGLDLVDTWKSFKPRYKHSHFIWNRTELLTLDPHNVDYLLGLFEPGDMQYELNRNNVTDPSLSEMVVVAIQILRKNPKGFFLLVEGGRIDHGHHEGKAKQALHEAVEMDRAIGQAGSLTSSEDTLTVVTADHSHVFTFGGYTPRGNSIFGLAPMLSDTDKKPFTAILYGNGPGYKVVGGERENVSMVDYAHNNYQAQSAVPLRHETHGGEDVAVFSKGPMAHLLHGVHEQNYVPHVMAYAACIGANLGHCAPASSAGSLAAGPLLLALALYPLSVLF

Nonstructural protein 1 = Nonstructural protein 1 (Influenza A virus, UniProt Q194T2); format: functional, Influenza A virus (A/California/07/2009(H1N1))
[8] = molecular target: Intestinal-type alkaline phosphatase (Homo sapiens, UniProt P09923); experiment: inhibition of human intestinal alkaline phosphatase – biochemical, dose response (AID 488876); format: functional
Estrogen receptor = molecular target: T6, Estrogen receptor (Homo sapiens, UniProt P03372);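 also: potency for inhibiting coactivator peptide recruitment to the receptor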
T6 sequence (P03372 whole entry): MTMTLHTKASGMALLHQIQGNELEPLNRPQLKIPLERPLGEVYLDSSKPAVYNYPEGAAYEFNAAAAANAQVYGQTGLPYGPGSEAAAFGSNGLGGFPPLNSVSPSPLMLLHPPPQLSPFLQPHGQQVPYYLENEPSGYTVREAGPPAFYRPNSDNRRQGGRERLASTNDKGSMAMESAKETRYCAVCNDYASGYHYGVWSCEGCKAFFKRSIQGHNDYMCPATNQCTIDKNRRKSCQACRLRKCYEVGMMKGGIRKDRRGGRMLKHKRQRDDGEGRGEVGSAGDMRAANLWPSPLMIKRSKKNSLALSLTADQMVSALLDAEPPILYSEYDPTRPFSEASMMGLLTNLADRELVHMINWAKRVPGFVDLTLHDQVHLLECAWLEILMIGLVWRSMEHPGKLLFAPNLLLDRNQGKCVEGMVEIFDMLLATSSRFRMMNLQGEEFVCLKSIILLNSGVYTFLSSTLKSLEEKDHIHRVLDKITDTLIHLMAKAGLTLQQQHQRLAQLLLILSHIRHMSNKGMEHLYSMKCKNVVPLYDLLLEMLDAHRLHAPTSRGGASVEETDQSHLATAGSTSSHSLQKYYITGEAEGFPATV

Coagulation factor XII = molecular target: T7, Coagulation factor XII (Homo sapiens, UniProt P00748); format: functional;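 also: activated factor XIIa alpha cleaving a fluorogenic AMC peptide substrate; inhibitor potency from loss of enzyme activity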
T7 sequence (P00748 whole entry): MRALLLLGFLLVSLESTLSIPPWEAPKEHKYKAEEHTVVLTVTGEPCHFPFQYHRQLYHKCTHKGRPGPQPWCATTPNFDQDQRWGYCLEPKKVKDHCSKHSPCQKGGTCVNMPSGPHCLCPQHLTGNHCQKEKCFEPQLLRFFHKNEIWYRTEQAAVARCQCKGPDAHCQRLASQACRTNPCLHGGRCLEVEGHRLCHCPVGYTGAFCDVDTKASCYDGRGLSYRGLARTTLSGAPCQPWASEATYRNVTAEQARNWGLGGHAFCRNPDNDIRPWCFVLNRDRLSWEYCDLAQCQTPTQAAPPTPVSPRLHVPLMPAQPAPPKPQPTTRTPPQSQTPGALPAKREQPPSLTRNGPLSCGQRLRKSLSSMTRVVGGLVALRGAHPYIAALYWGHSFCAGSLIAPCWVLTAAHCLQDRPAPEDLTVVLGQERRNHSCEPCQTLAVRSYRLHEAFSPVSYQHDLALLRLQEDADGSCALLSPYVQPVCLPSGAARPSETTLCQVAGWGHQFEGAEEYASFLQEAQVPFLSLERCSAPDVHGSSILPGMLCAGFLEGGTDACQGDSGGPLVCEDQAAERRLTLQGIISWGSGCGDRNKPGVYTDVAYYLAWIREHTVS

Streptokinase A = molecular target: T8, Streptokinase A (Streptococcus pyogenes serotype M1, UniProt P10520); experiment: viability-normalized secreted streptokinase activity reduction – plasminogen activation absorbance, OD405, dose response (AID 1914); format: functional, Streptococcus pyogenes M1 GAS;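 also: secreted streptokinase activity via plasminogen activation per viability signal from cell pellet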
T8 sequence (P10520 whole entry): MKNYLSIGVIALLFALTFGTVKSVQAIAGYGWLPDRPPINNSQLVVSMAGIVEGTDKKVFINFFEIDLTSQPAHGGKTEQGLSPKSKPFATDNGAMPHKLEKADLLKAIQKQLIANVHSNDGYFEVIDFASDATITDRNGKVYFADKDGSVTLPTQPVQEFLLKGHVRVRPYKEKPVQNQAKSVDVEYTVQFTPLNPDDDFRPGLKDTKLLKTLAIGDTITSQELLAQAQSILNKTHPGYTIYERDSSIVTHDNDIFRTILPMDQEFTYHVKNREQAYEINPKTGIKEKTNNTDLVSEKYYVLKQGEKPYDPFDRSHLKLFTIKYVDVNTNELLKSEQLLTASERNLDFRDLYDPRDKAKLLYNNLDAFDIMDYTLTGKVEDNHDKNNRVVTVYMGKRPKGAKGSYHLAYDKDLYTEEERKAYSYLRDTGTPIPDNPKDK

[9] = Luminescence Cell-Based Dose Retest to Confirm Inhibitors of Cancer Stem Cells. [Related pubchem assays (depositor defined):AID2717, AID2721]; format: functional; settings: Homo sapiens
[10] = test system: Streptococcus sp. 'group A'; experiment: Streptococcus pyogenes SK(-)GAS viability under kanamycin – luminescence, BacTiterGlo, confirmation, counter-screen for streptokinase expression inhibitor project, dose response (AID 1900); format: functional, organism-based
Streptococcus = experiment: GAS UMAA2166 growth inhibition – luminescence, BacTiterGlo, counter-screen for streptokinase expression inhibitor project, dose response (AID 1915); format: functional, organism-based;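 also: potency for reduction of bacterial viability or growth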
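For AC50 in this document: cells exposed to compound for roughly 70 hours or longer before luminescence read.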

Exodeoxyribonuclease V, sequence (P04993 whole entry): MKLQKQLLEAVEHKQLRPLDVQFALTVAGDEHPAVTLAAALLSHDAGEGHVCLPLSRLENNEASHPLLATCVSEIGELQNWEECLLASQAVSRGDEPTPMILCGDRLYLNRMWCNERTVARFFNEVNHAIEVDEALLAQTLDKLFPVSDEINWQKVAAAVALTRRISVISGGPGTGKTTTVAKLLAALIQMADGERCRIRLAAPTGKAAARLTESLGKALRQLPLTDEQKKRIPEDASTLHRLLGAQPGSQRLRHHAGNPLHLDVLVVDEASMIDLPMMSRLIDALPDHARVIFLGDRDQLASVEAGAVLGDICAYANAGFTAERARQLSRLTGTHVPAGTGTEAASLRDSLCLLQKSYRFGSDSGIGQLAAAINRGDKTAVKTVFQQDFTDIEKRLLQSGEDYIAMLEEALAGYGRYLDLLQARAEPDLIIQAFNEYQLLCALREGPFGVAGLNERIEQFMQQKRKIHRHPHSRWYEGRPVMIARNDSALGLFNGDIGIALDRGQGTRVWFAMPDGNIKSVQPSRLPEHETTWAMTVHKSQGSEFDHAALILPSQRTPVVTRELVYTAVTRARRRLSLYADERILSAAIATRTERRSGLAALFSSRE
Exodeoxyribonuclease V, sequence (P07648 whole entry): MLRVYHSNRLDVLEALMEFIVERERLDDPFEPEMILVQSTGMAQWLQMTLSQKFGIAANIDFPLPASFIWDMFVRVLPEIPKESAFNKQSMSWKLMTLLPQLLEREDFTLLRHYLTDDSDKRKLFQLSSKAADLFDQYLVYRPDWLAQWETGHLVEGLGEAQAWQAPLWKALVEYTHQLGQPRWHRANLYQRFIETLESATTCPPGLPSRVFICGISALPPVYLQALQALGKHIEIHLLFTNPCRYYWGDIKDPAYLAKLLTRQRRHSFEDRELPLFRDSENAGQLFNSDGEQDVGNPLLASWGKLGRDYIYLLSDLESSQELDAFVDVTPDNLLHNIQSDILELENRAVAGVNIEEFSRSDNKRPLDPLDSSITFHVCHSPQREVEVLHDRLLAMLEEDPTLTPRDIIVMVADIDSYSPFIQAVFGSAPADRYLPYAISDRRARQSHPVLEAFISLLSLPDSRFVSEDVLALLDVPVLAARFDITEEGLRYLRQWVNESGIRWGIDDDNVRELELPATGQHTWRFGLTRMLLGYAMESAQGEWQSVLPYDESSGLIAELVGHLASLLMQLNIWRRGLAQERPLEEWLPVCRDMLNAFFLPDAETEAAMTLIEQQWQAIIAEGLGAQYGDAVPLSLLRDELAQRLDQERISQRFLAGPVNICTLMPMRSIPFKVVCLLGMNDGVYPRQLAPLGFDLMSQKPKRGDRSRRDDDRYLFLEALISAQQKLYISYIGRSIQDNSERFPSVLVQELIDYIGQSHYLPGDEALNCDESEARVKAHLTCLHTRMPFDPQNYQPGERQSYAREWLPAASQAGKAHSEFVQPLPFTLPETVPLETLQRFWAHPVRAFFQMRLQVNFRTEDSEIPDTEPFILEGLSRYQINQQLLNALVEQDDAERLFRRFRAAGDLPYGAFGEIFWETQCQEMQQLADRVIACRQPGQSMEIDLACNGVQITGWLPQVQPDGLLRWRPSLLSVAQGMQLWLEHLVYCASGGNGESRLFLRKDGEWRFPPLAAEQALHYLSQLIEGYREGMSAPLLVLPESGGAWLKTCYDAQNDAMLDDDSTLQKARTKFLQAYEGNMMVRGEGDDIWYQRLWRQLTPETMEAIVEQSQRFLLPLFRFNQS
Exodeoxyribonuclease V, sequence (P08394 whole entry): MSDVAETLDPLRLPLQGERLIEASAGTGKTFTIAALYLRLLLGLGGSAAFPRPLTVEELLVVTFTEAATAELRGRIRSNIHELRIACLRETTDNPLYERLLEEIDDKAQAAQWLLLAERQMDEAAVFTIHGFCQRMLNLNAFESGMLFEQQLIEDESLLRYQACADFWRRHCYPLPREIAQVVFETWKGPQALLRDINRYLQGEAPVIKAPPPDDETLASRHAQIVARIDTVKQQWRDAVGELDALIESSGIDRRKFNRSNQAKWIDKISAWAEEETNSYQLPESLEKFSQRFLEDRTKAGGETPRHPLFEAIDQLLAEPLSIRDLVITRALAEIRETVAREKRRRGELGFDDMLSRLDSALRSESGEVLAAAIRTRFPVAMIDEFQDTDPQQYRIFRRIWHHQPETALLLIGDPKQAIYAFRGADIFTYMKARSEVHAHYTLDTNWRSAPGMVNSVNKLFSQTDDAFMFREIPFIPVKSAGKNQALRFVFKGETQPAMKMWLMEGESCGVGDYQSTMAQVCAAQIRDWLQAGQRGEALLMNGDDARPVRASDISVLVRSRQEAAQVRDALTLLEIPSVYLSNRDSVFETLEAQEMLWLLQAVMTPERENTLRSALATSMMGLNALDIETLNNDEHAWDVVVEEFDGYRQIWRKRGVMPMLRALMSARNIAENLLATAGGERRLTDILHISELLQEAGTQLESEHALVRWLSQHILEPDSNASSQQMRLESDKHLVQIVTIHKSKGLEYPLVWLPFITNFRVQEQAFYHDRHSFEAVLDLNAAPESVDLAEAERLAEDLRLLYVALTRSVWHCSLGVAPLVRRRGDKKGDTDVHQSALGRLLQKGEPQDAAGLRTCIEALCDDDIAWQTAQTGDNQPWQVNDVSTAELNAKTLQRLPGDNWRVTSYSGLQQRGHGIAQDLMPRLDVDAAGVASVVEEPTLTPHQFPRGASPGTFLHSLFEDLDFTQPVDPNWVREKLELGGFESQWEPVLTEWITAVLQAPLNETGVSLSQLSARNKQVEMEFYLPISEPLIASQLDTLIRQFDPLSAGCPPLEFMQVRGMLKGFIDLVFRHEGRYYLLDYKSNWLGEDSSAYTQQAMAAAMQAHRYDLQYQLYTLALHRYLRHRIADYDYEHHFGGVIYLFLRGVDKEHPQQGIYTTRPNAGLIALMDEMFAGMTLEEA
Intestinal-type alkaline phosphatase (Mus musculus, UniProt P24822), sequence (P24822 whole entry): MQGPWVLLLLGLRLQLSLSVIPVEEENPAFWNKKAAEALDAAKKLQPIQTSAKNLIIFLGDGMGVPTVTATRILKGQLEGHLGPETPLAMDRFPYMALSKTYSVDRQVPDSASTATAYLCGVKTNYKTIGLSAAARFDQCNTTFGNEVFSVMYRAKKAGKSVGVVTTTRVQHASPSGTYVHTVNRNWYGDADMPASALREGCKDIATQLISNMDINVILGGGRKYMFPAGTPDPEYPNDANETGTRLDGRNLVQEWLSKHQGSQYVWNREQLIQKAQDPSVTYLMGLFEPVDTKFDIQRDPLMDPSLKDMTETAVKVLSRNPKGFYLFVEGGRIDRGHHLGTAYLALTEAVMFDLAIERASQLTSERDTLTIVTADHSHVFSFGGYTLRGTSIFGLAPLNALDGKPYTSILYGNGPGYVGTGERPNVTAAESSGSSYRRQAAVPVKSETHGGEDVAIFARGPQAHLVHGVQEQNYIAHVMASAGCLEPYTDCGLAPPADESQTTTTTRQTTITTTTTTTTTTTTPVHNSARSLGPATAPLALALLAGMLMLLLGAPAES
Intestinal-type alkaline phosphatase (Homo sapiens, UniProt P09923), sequence (P09923 whole entry): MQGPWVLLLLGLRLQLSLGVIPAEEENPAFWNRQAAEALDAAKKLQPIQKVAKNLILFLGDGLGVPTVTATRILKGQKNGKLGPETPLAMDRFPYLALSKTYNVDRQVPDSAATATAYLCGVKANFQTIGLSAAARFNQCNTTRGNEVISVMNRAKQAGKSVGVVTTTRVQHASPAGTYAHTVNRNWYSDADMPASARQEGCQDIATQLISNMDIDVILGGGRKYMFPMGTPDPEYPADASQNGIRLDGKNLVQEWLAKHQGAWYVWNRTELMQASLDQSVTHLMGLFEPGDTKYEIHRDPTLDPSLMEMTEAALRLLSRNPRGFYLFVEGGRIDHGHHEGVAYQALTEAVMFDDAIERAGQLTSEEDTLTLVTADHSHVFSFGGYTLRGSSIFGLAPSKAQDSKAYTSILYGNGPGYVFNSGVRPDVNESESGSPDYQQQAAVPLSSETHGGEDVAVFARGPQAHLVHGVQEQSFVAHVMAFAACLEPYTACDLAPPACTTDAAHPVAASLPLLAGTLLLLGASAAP
Tumor necrosis factor, sequence (P01375 whole entry): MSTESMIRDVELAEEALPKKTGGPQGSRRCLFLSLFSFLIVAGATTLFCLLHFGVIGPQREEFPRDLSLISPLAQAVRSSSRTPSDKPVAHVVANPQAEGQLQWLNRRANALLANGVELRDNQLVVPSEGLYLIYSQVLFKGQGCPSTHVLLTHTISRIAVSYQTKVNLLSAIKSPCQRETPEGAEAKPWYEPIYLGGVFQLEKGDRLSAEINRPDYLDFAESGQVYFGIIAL
Nonstructural protein 1, sequence (Q194T2 whole entry): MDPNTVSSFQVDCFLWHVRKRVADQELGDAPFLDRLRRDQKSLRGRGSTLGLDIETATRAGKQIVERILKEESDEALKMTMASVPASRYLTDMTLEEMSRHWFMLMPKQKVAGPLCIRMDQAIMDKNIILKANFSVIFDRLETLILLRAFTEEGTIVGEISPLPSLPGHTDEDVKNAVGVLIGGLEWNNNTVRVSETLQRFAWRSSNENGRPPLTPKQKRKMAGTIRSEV

CCOc1ccc(NC(S)=NCc2nc3ccccc3[nH]2)cc1
IC50 [1]: > 119 µM (inactive)
IC50 (Exodeoxyribonuclease V): > 119 µM (inactive)

COc1cc(C(=S)NC2CCCC2)ccc1O
IC50 [2]: 2.58 µM (active)
IC50 [3]: > 100 µM (inactive)

C/C(=N\N=C(N)N)c1ccc(Cl)c(Cl)c1
IC50 [4]: 13.8 µM (active)

C/C(=N/OCO/N=C(/C)c1ccc(F)cc1)c1ccc(F)cc1
IC50 (Vero): > 12.5 µM (active)

Cc1ccc(-c2nc3ccccc3s2)cc1
IC50 (HEK293): > 20 µM (inactive)
IC50 [5]: > 20 µM (inactive)
IC50 (Tumor necrosis factor): > 20 µM (inactive)

COCc1ccc(CN2CCC(C(=O)Nc3cccc(-c4cccc(Cl)c4)c3)CC2)o1
IC50 [6]: 2.01 µM (active)
IC50 [7]: 17.8 µM (active)
IC50 (Nonstructural protein 1): > 100 µM (active)
IC50 [8]: > 100 µM (inactive)

Cc1ccc(-c2nnc3n2N=C(c2ccc(Br)cc2)CS3)cc1
IC50 (Estrogen receptor): 42.3 µM (not active)
IC50 (Coagulation factor XII): > 50 µM (inactive)

CN(CCNC(=O)CN1CCN(Cc2ccccc2Cl)C1=O)Cc1ccccc1
IC50 [4]: 15.9 µM (active)

S=C(NCCC(c1ccccc1)c1ccccc1)Nc1cccc(Cl)c1
IC50 [6]: 6.96 µM (active)
EC50 (Streptokinase A): 15.3 µM (active)
IC50 [7]: 22.9 µM (active)
AC50 [9]: 2.27 µM (active)
EC50 [10]: 3.81 µM (active)
EC50 (Streptococcus): 10.5 µM (active)
IC50 [8]: 57.7 µM (active)

CCCCOc1ccc(Cc2cnc(N)nc2N)cc1
IC50 [1]: 85.2 µM (inactive)
IC50 (Exodeoxyribonuclease V): 114 µM (inactive)
